Measurements as given in US20100216661A1, “Diagnostic Assay” (priority 2007, published 2010).

These substances were tested on anti-RhD monoclonal antibody T10 (LHM76/55) (assay: Biopanning of phage-peptide libraries with anti-RhD T10). Conditions: biopanning of phage-peptide libraries with anti-RhD monoclonal T10.
Format: binding, Human
Source text: (§1) Three different phage libraries from New England Biolabs. (Ph.D. 7 and Ph.D. 12 displaying linear 7- and 12-mer peptides, respectively and Ph.D. C7C displaying 7-mer peptides constrained by a disulphide bridge at their termini) and a linear 15mer library (kindly provided by Prof. George P. Smith, University of Missouri) were used in biopanning experiments with 10 different monoclonal antibodies and a polyclonal preparation (Table 1).
(§2) For each target antibody/library combination, a separate well of a 96-well Immulon 4 flat-bottomed ELISA plate (Thermo Labsystems) was coated with 5 μg of antibody in 150 μl ELISA coating buffer (15 mM Na2CO3, 35 mM NaHCO3, pH9.6). Plates were sealed and incubated at 4° C. overnight. Unbound antibody was discarded and 350 μl of blocking buffer (0.1M NaHCO3/3% skimmed milk powder) was added to each well. Plates were sealed and incubated for 1 hour at 4° C. The blocking buffer was removed and the wells were washed six times with 300 μl TBS/0.1% Tween 20. Approximately 2×10^11 plaque forming units (pfu) in 100 μl TBS/0.1% Tween 20 were added to each well and the plates were incubated at room temperature for 1 hour. Wells were washed ten times with 300 μl TBS/0.1% Tween 20. Bound phage were eluted by incubation with 100 μl of 0.2M glycine-HCl/BSA, pH2.2 (1 mg/ml) for 10 minutes, then neutralised with 15 μl of 1M Tris-HCL (pH9.1). An aliquot of the Round 1 eluate was removed and titred. The remainder of the eluted phage were amplified by infection of E. coli ER2538 cells for 4.5 hours at 37° C. The cultures were centrifuged for 10 minutes at 10,000 rpm at 4° C. The supernatants were recovered, ⅙ volume PEG/NaCl (20% polyethylene glycol 8000; 2.5M NaCl) added, then incubated overnight at 4° C. The PEG-precipitated phage were centrifuged at 10,000 rpm for 15 minutes at 4° C. The supernatant was removed and the phage pellet resuspended in 200 μl TBS. Two further rounds of panning were undertaken and approximately 2×10^11 pfu of the Round 2 or Round 3 amplified eluates were used as input phage. Round 3 eluates were titrated but not amplified. Individual plaques were amplified and subjected to PCR amplification, prior to DNA sequence analysis. The specificity of peptide-antibody binding was subsequently determined using both phage ELISA and SPOTs techniques.
For Rh0 43 (YYQRAPY), the “Panning Antibody (antibody that selected the phage-peptide in biopanning)” value was “RhD T10”.
With RhD 41 (WYTKAPY) the “Panning Antibody (antibody that selected the phage-peptide in biopanning)” value was “RhD T10”.
With RhD 42 (WYHKAPY) the “Panning Antibody (antibody that selected the phage-peptide in biopanning)” value was “RhD T10”.
RhD 44 (HWKHPWGAWDTL) was tested, and the “Panning Antibody (antibody that selected the phage-peptide in biopanning)” value was “RhD T10”.
With RhD 45 (WHWQWTPWSIQP) the “Panning Antibody (antibody that selected the phage-peptide in biopanning)” value was “RhD T10”.
For RhD 46 (WHKNWWPPSTPN), the “Panning Antibody (antibody that selected the phage-peptide in biopanning)” value was “RhD T10”.
RhD 47 (SMSSMLLAAQTV) was tested, and the “Panning Antibody (antibody that selected the phage-peptide in biopanning)” value was “RhD T10”.
RhD 48 (QSHYRHISPAQV) was tested, and the “Panning Antibody (antibody that selected the phage-peptide in biopanning)” value was “RhD T10”.
RhD 49 (SMSQPKSQVNAH) was tested, and the “Panning Antibody (antibody that selected the phage-peptide in biopanning)” value was “RhD T10”.
With RhD 50 (WHWTFYTPLEST) the “Panning Antibody (antibody that selected the phage-peptide in biopanning)” value was “RhD T10”.
RhD 51 (ESLSTDTYAILL) was tested, and the “Panning Antibody (antibody that selected the phage-peptide in biopanning)” value was “RhD T10”.
For RhD 52 (HSSWYIQHFPPL), the “Panning Antibody (antibody that selected the phage-peptide in biopanning)” value was “RhD T10”.
In the case of RhD 53 (STYLNGPTGVDL), the “Panning Antibody (antibody that selected the phage-peptide in biopanning)” value is reported as “RhD T10”.
For RhD 54 (QHKTSITGHLEP), the “Panning Antibody (antibody that selected the phage-peptide in biopanning)” value was “RhD T10”.
With RhD 55 (FHRWPTWPLPSP) the “Panning Antibody (antibody that selected the phage-peptide in biopanning)” value was “RhD T10”.
In the case of RhD 56 (VPPWVSVRTGPG), the “Panning Antibody (antibody that selected the phage-peptide in biopanning)” value is reported as “RhD T10”.
In the case of RhD 57 (TLVYQPPWYRIA), the “Panning Antibody (antibody that selected the phage-peptide in biopanning)” value is reported as “RhD T10”.
RhD 58 (FHQRLWWPTHTP) was tested, and the “Panning Antibody (antibody that selected the phage-peptide in biopanning)” value was “RhD T10”.
For RhD 59 (WHWRLYSANTP), the “Panning Antibody (antibody that selected the phage-peptide in biopanning)” value was “RhD T10”.
RhD 60 (HAAFEPRGDVRHTLL) was tested, and the “Panning Antibody (antibody that selected the phage-peptide in biopanning)” value was “RhD T10”.
For RhD 61 (SIWDLPLQYRGFGTS), the “Panning Antibody (antibody that selected the phage-peptide in biopanning)” value was “RhD T10”.
For RhD 62 (LWRLRGGSFPVISHG), the “Panning Antibody (antibody that selected the phage-peptide in biopanning)” value was “RhD T10”.
With RhD 63 (RNALHSLRTLSSSWV) the “Panning Antibody (antibody that selected the phage-peptide in biopanning)” value was “RhD T10”.
RhD 64 (FHRHWWPPTLST) was tested, and the “Panning Antibody (antibody that selected the phage-peptide in biopanning)” value was “RhD T10”.
RhD 65 (RPHLLDWELNPV) was tested, and the “Panning Antibody (antibody that selected the phage-peptide in biopanning)” value was “RhD T10”.
In the case of RhD 66 (FHWRWSTFPEYP), the “Panning Antibody (antibody that selected the phage-peptide in biopanning)” value is reported as “RhD T10”.
With RhD 67 (VWAVSLPWYRYP) the “Panning Antibody (antibody that selected the phage-peptide in biopanning)” value was “RhD T10”.
In the case of RhD 68 (LDTYWYREHFRR), the “Panning Antibody (antibody that selected the phage-peptide in biopanning)” value is reported as “RhD T10”.
RhD 69 (VHWRWWDQRVPM) was tested, and the “Panning Antibody (antibody that selected the phage-peptide in biopanning)” value was “RhD T10”.
In the case of RhD 70 (LPWYQLT), the “Panning Antibody (antibody that selected the phage-peptide in biopanning)” value is reported as “RhD T10”.
With RhD 71 (VPWFRAP) the “Panning Antibody (antibody that selected the phage-peptide in biopanning)” value was “RhD T10”.
With RhD 72 (WHPPQPS) the “Panning Antibody (antibody that selected the phage-peptide in biopanning)” value was “RhD T10”.
RhD 73 (FHENWPS) was tested, and the “Panning Antibody (antibody that selected the phage-peptide in biopanning)” value was “RhD T10”.
With RhD 74 (FWWQVPA) the “Panning Antibody (antibody that selected the phage-peptide in biopanning)” value was “RhD T10”.
In the case of RhD 75 (TQWYQIA), the “Panning Antibody (antibody that selected the phage-peptide in biopanning)” value is reported as “RhD T10”.
RhD 76 (LPWFQLP) was tested, and the “Panning Antibody (antibody that selected the phage-peptide in biopanning)” value was “RhD T10”.
RhD 77 (TPLSKST) was tested, and the “Panning Antibody (antibody that selected the phage-peptide in biopanning)” value was “RhD T10”.
In the case of RhD 78 (LPWYATP), the “Panning Antibody (antibody that selected the phage-peptide in biopanning)” value is reported as “RhD T10”.
With RhD 79 (LPWYRH) the “Panning Antibody (antibody that selected the phage-peptide in biopanning)” value was “RhD T10”.
With RhD 80 (IPWYKIT) the “Panning Antibody (antibody that selected the phage-peptide in biopanning)” value was “RhD T10”.

Same assay, conditions: phage-peptide libraries; three rounds of panning
With “RhD52: RhD peptide mimotope, Table 4 (HSSWYIQHFPPL)” the “Selection by biopanning with anti-RhD monoclonal antibody T10” value was “selected”.

What follows are substances tested on polyclonal anti-RhD preparation (Human Anti-D Ig) (assay: Biopanning of phage-peptide libraries with polyclonal anti-RhD). Conditions: biopanning of phage-peptide libraries with polyclonal anti-RhD preparation.
Format: binding
Source text: as §1, §2
With RhD 81 (FHSTWPWREAEG) the “Panning Antibody (antibody that selected the phage-peptide in biopanning)” value was “RhD”.
With RhD 82 (FHANWPQSARDV) the “Panning Antibody (antibody that selected the phage-peptide in biopanning)” value was “RhD”.
In the case of RhD 83 (FHSDWPGQTFTW), the “Panning Antibody (antibody that selected the phage-peptide in biopanning)” value is reported as “RhD”.
In the case of RhD 84 (FHENWSTRPTTR), the “Panning Antibody (antibody that selected the phage-peptide in biopanning)” value is reported as “RhD”.
With RhD 85 (FHSVYPWREAEG) the “Panning Antibody (antibody that selected the phage-peptide in biopanning)” value was “RhD”.
RhD 86 (FHSNWPSAYTAR) was tested, and the “Panning Antibody (antibody that selected the phage-peptide in biopanning)” value was “RhD”.
For RhD 87 (FHSNWPSLIRAR), the “Panning Antibody (antibody that selected the phage-peptide in biopanning)” value was “RhD”.
RhD 88 (AGYQIGMPNPLL) was tested, and the “Panning Antibody (antibody that selected the phage-peptide in biopanning)” value was “RhD”.
With RhD 89 (FHWRYPLPLPGQ) the “Panning Antibody (antibody that selected the phage-peptide in biopanning)” value was “RhD”.
RhD 90 (SPTSFRQVFGFY) was tested, and the “Panning Antibody (antibody that selected the phage-peptide in biopanning)” value was “RhD”.
For RhD 91 (ALPELSSLPESAR), the “Panning Antibody (antibody that selected the phage-peptide in biopanning)” value was “RhD”.
In the case of RhD 92 (LHWWPTYGNNGM), the “Panning Antibody (antibody that selected the phage-peptide in biopanning)” value is reported as “RhD”.
For RhD 93 (FHRPYYWPPTPL), the “Panning Antibody (antibody that selected the phage-peptide in biopanning)” value was “RhD”.
For RhD 94 (FHWRLPYPLPSS), the “Panning Antibody (antibody that selected the phage-peptide in biopanning)” value was “RhD”.
With RhD 95 (IHWWVKSPPPGS) the “Panning Antibody (antibody that selected the phage-peptide in biopanning)” value was “RhD”.
In the case of RhD 96 (SHWWTSILATPS), the “Panning Antibody (antibody that selected the phage-peptide in biopanning)” value is reported as “RhD”.
In the case of RhD 97 (FHWHLQPQLWSY), the “Panning Antibody (antibody that selected the phage-peptide in biopanning)” value is reported as “RhD”.
With RhD 98 (LHREWIYPYLIS) the “Panning Antibody (antibody that selected the phage-peptide in biopanning)” value was “RhD”.
For RhD 99 (GQKTHNPFHLHP), the “Panning Antibody (antibody that selected the phage-peptide in biopanning)” value was “RhD”.
RhD 100 (ATWSHHLSSAGL) was tested, and the “Panning Antibody (antibody that selected the phage-peptide in biopanning)” value was “RhD”.
With RhD 101 (FHRHYYPWALIQ) the “Panning Antibody (antibody that selected the phage-peptide in biopanning)” value was “RhD”.
For RhD 102 (HSLKHTQMSYSS), the “Panning Antibody (antibody that selected the phage-peptide in biopanning)” value was “RhD”.
For RhD 103 (SVSVGMKPSPRP), the “Panning Antibody (antibody that selected the phage-peptide in biopanning)” value was “RhD”.
With RhD 104 (WPHQVHKHIYRQ) the “Panning Antibody (antibody that selected the phage-peptide in biopanning)” value was “RhD”.
With RhD 105 (APPYPGPLPLSL) the “Panning Antibody (antibody that selected the phage-peptide in biopanning)” value was “RhD”.

Same assay, conditions: phage-peptide libraries; three rounds of panning
For “RhD52: RhD peptide mimotope, Table 4 (HSSWYIQHFPPL)”, the “Selection by biopanning with polyclonal anti-RhD preparation” value was “selected”.

The substances below were run on anti-RhD monoclonal antibody T22 (LHM 169/80) (assay: Biopanning of phage-peptide libraries with anti-RhD T22). Conditions: not given.
Format: binding, Human
Source text: as §1, §2
For Rh0 37 (WHWSSLSWPALP), the “Panning Antibody (antibody that selected the phage-peptide in biopanning)” value was “RhD T22”.
For RhD 16 (WGLWFSN), the “Panning Antibody (antibody that selected the phage-peptide in biopanning)” value was “RhD T22”.
For RhD 17 (WGIWWNN), the “Panning Antibody (antibody that selected the phage-peptide in biopanning)” value was “RhD T22”.
For RhD 18 (WGLWSTP), the “Panning Antibody (antibody that selected the phage-peptide in biopanning)” value was “RhD T22”.
In the case of RhD 19 (WVHLQSP), the “Panning Antibody (antibody that selected the phage-peptide in biopanning)” value is reported as “RhD T22”.
For RhD 20 (WGLWWHT), the “Panning Antibody (antibody that selected the phage-peptide in biopanning)” value was “RhD T22”.
In the case of RhD 21 (WGLWWTG), the “Panning Antibody (antibody that selected the phage-peptide in biopanning)” value is reported as “RhD T22”.
With RhD 22 (LLGLTET) the “Panning Antibody (antibody that selected the phage-peptide in biopanning)” value was “RhD T22”.
In the case of RhD 23 (DSRWLLP), the “Panning Antibody (antibody that selected the phage-peptide in biopanning)” value is reported as “RhD T22”.
With RhD 24 (FHWWPRTQDPHR) the “Panning Antibody (antibody that selected the phage-peptide in biopanning)” value was “RhD T22”.
RhD 25 (FHWSWYTPSRPS) was tested, and the “Panning Antibody (antibody that selected the phage-peptide in biopanning)” value was “RhD T22”.
RhD 26 (HSSWWLALAKPT) was tested, and the “Panning Antibody (antibody that selected the phage-peptide in biopanning)” value was “RhD T22”.
With RhD 27 (WHWYPRFSPPSH) the “Panning Antibody (antibody that selected the phage-peptide in biopanning)” value was “RhD T22”.
RhD 28 (NDYSDSNQVPAS) was tested, and the “Panning Antibody (antibody that selected the phage-peptide in biopanning)” value was “RhD T22”.
RhD 29 (FHWPRSWVTWQS) was tested, and the “Panning Antibody (antibody that selected the phage-peptide in biopanning)” value was “RhD T22”.
For RhD 30 (HLSSRHLFVPLS), the “Panning Antibody (antibody that selected the phage-peptide in biopanning)” value was “RhD T22”.
In the case of RhD 31 (TITDCYPICVSP), the “Panning Antibody (antibody that selected the phage-peptide in biopanning)” value is reported as “RhD T22”.
